In general, IC50 refers to the midpoint of a concentration-inhibition curve.

SMILES strings stand for the structures. Like-named read-outs stand apart in the source and are kept apart here. Where only a bound is given, the exact number is not on record here.

The values below come from patent US20260176270A1 (Exelixis, Inc., priority 2022, published 2026).

In one assay the target is T1, PKMYT1 (Homo sapiens, UniProt Q99640).
T1 construct: PKMYT1 (93 kD, full length, N-terminal GST tag from Signal Chem); GST (N); purchased Signal Chem
T1 sequence (Q99640 1-499): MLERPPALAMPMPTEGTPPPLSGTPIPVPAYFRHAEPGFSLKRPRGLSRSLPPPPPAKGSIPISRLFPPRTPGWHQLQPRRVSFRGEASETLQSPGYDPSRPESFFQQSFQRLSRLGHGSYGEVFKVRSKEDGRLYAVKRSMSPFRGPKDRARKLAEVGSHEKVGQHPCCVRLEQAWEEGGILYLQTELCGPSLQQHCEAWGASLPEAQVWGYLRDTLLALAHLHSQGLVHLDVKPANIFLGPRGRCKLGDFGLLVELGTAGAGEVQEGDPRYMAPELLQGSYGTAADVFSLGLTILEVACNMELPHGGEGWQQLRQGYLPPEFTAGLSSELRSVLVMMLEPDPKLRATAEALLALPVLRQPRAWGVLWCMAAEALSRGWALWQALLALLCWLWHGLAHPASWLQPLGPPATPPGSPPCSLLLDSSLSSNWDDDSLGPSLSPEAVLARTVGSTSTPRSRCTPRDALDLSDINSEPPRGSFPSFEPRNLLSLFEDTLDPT
The assay is described as follows: ADP-Glo PKMYT1 ATP-depletion assay. To be noted: 50 nM PKMYT1, 13.3 nM CDK1, read-out: Biochemical IC50. Put shortly: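 Full-length N-terminal GST-tagged PKMYT1 (50 nM) with GST-CDK1 (13.3 nM) as substrate and 88 µM ATP, in Hepes buffer with MgCl2, MnCl2, DTT and BSA; DMSO <1%. Incubated 120 min at RT. ADP formed was quantified by ADP-Glo luminescence and used to derive biochemical IC50.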
(In general: ADP-Glo turns the ADP formed in a reaction into a luminescent signal.)

In assay [1] the test system is phosphorylation of CDK1 at Thr14 in HCC1806 cells. The assay is described as follows: Cell lysate AlphaLISA assay measuring inhibition of phosphorylation of CDK1 Thr14. The assay is classed as cell-based. To be noted: read-out: Cellular IC50. Summed up: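 HCC1806 cells seeded overnight, then treated 4 h at 37 °C, 5% CO2 with compounds in DMSO; washed and lysed, lysates frozen overnight at −80 °C. CDK1 Thr14 phosphorylation read by AlphaLISA SureFire Ultra; data normalized to DMSO (0% inhibition) and 3 μM reference compound to give IC50.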
For orientation: In Alpha technology, singlet oxygen from a donor bead excites a nearby acceptor bead.

On to `Cc1ccc(O)c(C)c1-c1c(N)c(C(N)=O)cc2nc(N3CCC4(COC4)C3)cnc12` [Compound 339], for which the IC50 at PKMYT1 was in the range of 50 to 500 nM; in assay [1] (Homo sapiens, HCC1806, 4 h) it was 1000 to 5000 nM.
As to `NC(=O)c1cc2nccnc2c(-c2cc(O)cnc2Cl)c1N` [Compound 122, 7-Amino-8-(2-chloro-5-hydroxy-3-pyridyl)quinoxaline-6-carboxamide], the IC50 is 1000 to 5000 nM on PKMYT1 and no less than 5000 nM in assay [1] (Homo sapiens, HCC1806, 4 h).
The matching figures for `Cc1cccc(-c2c(N)c(C(N)=O)cc3cc(Cl)cnc23)c1C` (atropisomer, axis not shown) [Compound 180]: 50 to 500 nM and 1000 to 5000 nM.
For `Cc1c(O)cccc1-c1c(N)c(C(N)=O)cc2cccnc12` (single isomer, unassigned) [Compound 63], the IC50 was 1000 to 5000 nM at PKMYT1 and no less than 5000 nM in assay [1] (4 hours).
Turning to `NC(=O)c1nc2cccnc2c(-c2cccc3[nH]nc(F)c23)c1N` (atropisomer, axis not shown) [Compound 305], the IC50 at PKMYT1 fell in the range of 50 to 500 nM; in assay [1] (4 hours), 1000 to 5000 nM.
Take `NC(=O)c1cc2nccnc2c(-c2cc(O)ccc2C(F)(F)F)c1N` [Compound 215]: the IC50 at PKMYT1 is no less than 5000 nM; in assay [1] (Homo sapiens, HCC1806, 4 h), no less than 5000 nM.
In the case of `Cc1c(O)cccc1-c1c(N)c(C(N)=O)cc2cc(Cl)cnc12` [Compound 146], the 50% inhibitory concentration (IC50) is less than 50 nM on PKMYT1 and 50 to 500 nM in assay [1] (Homo sapiens, HCC1806, 4 h).
For `Cc1c(O)cccc1-c1c(N)c(C(N)=O)nc2cccnc12` (single isomer, unassigned) [Compound 5, (M)-3-amino-4-(3-hydroxy-2-methylphenyl)-1,5-naphthyridine-2-carboxamide], the IC50 was in the range of 500 to 1000 nM on PKMYT1 and 1000 to 5000 nM in assay [1] (4 hours).
Turning to `Cc1c(O)cccc1-c1c(N)c(C(N)=O)cc2cccnc12` [Compound 61, 7-Amino-8-(3-hydroxy-2-methylphenyl)quinoline-6-carboxamide], the IC50 on PKMYT1 is less than 50 nM; in assay [1] (Homo sapiens, HCC1806, 4 h) it was 50 to 500 nM.
Take `Cc1ccc(O)c(C)c1-c1c(N)c(C(N)=O)nc2ccccc12` [Compound 22, 3-Amino-4-(3-hydroxy-2,6-dimethylphenyl)quinoline-2-carboxamide]: the IC50 on PKMYT1 was 50 to 500 nM; in assay [1] (4 hours) it was 1000 to 5000 nM.
With `Cc1c(F)cncc1-c1c(N)c(C(N)=O)nc2cccnc12` [Compound 208], the IC50 lay within 50 to 500 nM on PKMYT1 and 500 to 1000 nM in assay [1] (Homo sapiens, HCC1806, 4 h).
On to `Cc1cc(O)cc(C)c1-c1cc(C(N)=O)cc2nccnc12` [Compound 131], for which the IC50 was no less than 5000 nM at PKMYT1 and no less than 5000 nM in assay [1] (Homo sapiens, HCC1806, 4 h).
Consider `Cc1ccc(O)c(C)c1-c1c(N)c(C(N)=O)cc2nc(C(F)(F)F)cnc12` [Compound 101, 7-Amino-8-(3-hydroxy-2,6-dimethylphenyl)-3-(trifluoromethyl)quinoxaline-6-carboxamide], for which the IC50 was 50 to 500 nM on PKMYT1 and 50 to 500 nM in assay [1] (Homo sapiens, HCC1806, 4 h).
On to `Cc1c(O)cccc1-c1c(N)c(C(N)=O)nc2cccnc12` (single isomer, unassigned) [Compound 4, (P)-3-Amino-4-(3-hydroxy-2-methylphenyl)-1,5-naphthyridine-2-carboxamide], for which the IC50 (at PKMYT1; in assay [1] (4 hours)) was less than 50 nM in each case.
On to `NC(=O)c1nc2cccnc2c(-c2cc(F)cc3[nH]ncc23)c1N` [Compound 203], for which the IC50 is 50 to 500 nM at PKMYT1 and 1000 to 5000 nM in assay [1] (Homo sapiens, HCC1806, 4 h).
For `Cc1ccc(O)c(C)c1-c1c(N)c(C(N)=O)nc2ccc(F)cc12` (atropisomer, axis not shown; (M)) [Compound 23, (M)-3-Amino-6-fluoro-4-(3-hydroxy-2,6-dimethylphenyl) quinoline-2-carboxamide], the IC50 on PKMYT1 fell in the range of 50 to 500 nM; in assay [1] (4 hours), 1000 to 5000 nM.
In the case of `CC1=C(c2c(N)c(C(N)=O)nc3cccnc23)CCC[C@H]1O` [Compound 309], the IC50 at PKMYT1 was no less than 5000 nM; in assay [1] (Homo sapiens, HCC1806, 4 h), no less than 5000 nM.
As for `NC(=O)c1nc2cccnc2c(-c2ccc(F)c3[nH]ncc23)c1N` [Compound 190], the IC50 on PKMYT1 was 50 to 500 nM; in assay [1] (Homo sapiens, HCC1806, 4 h), 1000 to 5000 nM.
As for `Cc1ccc2[nH]ncc2c1-c1cc(C(N)=O)nc2ccccc12` [Compound 15, 4-(5-Methyl-1H-indazol-4-yl)quinoline-2-carboxamide], the IC50 on PKMYT1 was no less than 5000 nM; in assay [1] (Homo sapiens, HCC1806, 4 h), no less than 5000 nM.
As to `Cc1c(O)cccc1-c1c(N)c(C(N)=O)nc2cc(Cl)ccc12` [Compound 37, 3-Amino-7-chloro-4-(3-hydroxy-2-methylphenyl)quinoline-2-carboxamide], the IC50 on PKMYT1 fell in the range of 1000 to 5000 nM; in assay [1] (Homo sapiens, HCC1806, 4 h), 1000 to 5000 nM.
For `Cc1c(O)cccc1-c1c(N)c(C(N)=O)cc2nc(C(F)(F)F)c(O)nc12` (atropisomer, axis not shown) [Compound 135], the IC50 lay in the range of 50 to 500 nM on PKMYT1 and 1000 to 5000 nM in assay [1] (4 hours).
`Cc1ccc(O)c(C)c1-c1c(N)c(C(N)=O)nc2ccc(Cl)cc12` (single isomer, unassigned) [Compound 53, (M)-3-Amino-6-chloro-4-(3-hydroxy-2,6-dimethylphenyl)quinoline-2-carboxamide]: the IC50 on PKMYT1 lay in the range of 50 to 500 nM; in assay [1] (4 hours), 1000 to 5000 nM.
For the compound `Cc1ccc2c(-c3cccc(O)c3C)c(N)c(C(N)=O)nc2c1` [Compound 46, 3-Amino-4-(3-hydroxy-2-methylphenyl)-7-methylquinoline-2-carboxamide], the IC50 is 1000 to 5000 nM at PKMYT1 and no less than 5000 nM in assay [1] (Homo sapiens, HCC1806, 4 h).
For `Cc1ccc(-c2c(N)c(C(N)=O)nc3cccnc23)c(C)c1O` (atropisomer, axis not shown) [Compound 288], the IC50 is less than 50 nM at PKMYT1 and 50 to 500 nM in assay [1] (4 hours).
With `Cc1ccc(O)cc1-c1c(N)c(C(N)=O)cc2nccnc12` [Compound 123, 7-Amino-8-(5-hydroxy-2-methylphenyl)quinoxaline-6-carboxamide], the values for the IC50 (at PKMYT1; in assay [1] (4 hours)) were 50 to 500 nM and 1000 to 5000 nM, respectively.
For the compound `Cc1cnc2cc(C(N)=O)c(N)c(-c3c(C)ccc(O)c3C)c2n1` (atropisomer, axis not shown) [Compound 192], the IC50 (on PKMYT1; in assay [1] (4 hours)) was no less than 5000 nM throughout.
As to `NC(=O)c1cc2nccnc2c(-c2cc(O)ccc2Cl)c1N` [Compound 121, 7-Amino-8-(2-chloro-5-hydroxyphenyl)quinoxaline-6-carboxamide], the IC50 on PKMYT1 was 50 to 500 nM; in assay [1] (Homo sapiens, HCC1806, 4 h), 1000 to 5000 nM.
For the compound `Cc1c(O)cccc1-c1c(N)c(C(N)=O)cc2nccnc12` (single isomer, unassigned) [Compound 87, (P)-7-Amino-8-(3-hydroxy-2-methylphenyl)quinoxaline-6-carboxamide], the IC50 on PKMYT1 was less than 50 nM; in assay [1] (4 hours) it was 50 to 500 nM.
With `Cc1c(O)cccc1-c1c(N)c(C(N)=O)cc2ccncc12` [Compound 335], the IC50 is 50 to 500 nM at PKMYT1 and 1000 to 5000 nM in assay [1] (Homo sapiens, HCC1806, 4 h).
Consider `Cc1ccc2[nH]ncc2c1-c1c(N)c(C(N)=O)nc2cccnc12` (single isomer, unassigned) [Compound 7, (P)-3-amino-4-(5-methyl-1H-indazol-4-yl)-1,5-naphthyridine-2-carboxamide], for which the half-maximal inhibitory concentration (IC50) on PKMYT1 lay in the range of 50 to 500 nM; in assay [1] (4 hours), 1000 to 5000 nM.
On the same counts, the results for `Cc1c(O)cccc1-c1c(N)c(C(N)=O)cc2ncc(C(F)(F)F)nc12` [Compound 139] are less than 50 nM and 50 to 500 nM.
Take `Cc1c(-c2c(N)c(C(N)=O)cc3nccnc23)ccnc1O` [Compound 110, 7-Amino-8-(2-hydroxy-3-methylpyridin-4-yl)quinoxaline-6-carboxamide]: the IC50 (on PKMYT1; in assay [1] (4 hours)) was no less than 5000 nM throughout.
